Measurements from ChEMBL document CHEMBL1201862, “PubChem BioAssay data set” (2004).
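Where inhibition never reached the appropriate level, the endpoint shown equals the highest concentration tested. Otherwise, values were interpolated linearly from a five-concentration, 48-hour dose response in 96-well plates. The concentration for 50% growth inhibition is given as GI50.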 Activity calls are given as the source filed them. No stated cut-off is given here; in the data, active = GI50 up to about 1.1 µM and inactive = higher.

How the values were obtained:
Test in all cases: NCI anticancer screen, dose series, 48 h
[1] = test system: BT-549
[2] = test system: HCC 2998
[3] = test system: HOP-62
[4] = test system: KM12
[5] = test system: LOX IMVI
[6] = test system: M14
[7] = test system: MCF7
[8] = test system: MDA-MB-231
[9] = test system: MDA-N
[10] = test system: Malme-3M
[11] = test system: NCI-H226
[12] = test system: NCI-H522
[13] = test system: OVCAR-3
[14] = test system: OVCAR-8
[15] = test system: PC-3
[16] = test system: RPMI-8226
[17] = test system: SF-295
[18] = test system: SK-MEL-28
[19] = test system: TK-10
[20] = test system: UACC-62

Row | Compound | GI50 [1] | GI50 [2] | GI50 [3] | GI50 [4] | GI50 [5] | GI50 [6] | GI50 [7] | GI50 [8] | GI50 [9] | GI50 [10] | GI50 [11] | GI50 [12] | GI50 [13] | GI50 [14] | GI50 [15] | GI50 [16] | GI50 [17] | GI50 [18] | GI50 [19] | GI50 [20]
1 | O=c1cnn(C2OC(CO)C(O)C2O)c(=S)[nH]1 (stereo not given) | > 100 µM (inactive) | > 87.1 µM (inactive) | > 63.7 µM (inactive) | 22.3 µM (inactive) | 1.24 µM (inactive) | > 100 µM (inactive) | 10.6 µM (inactive) | > 100 µM (inactive) | > 100 µM (inactive) | > 77.8 µM (inactive) | > 100 µM (inactive) | 16.4 µM (inactive) | > 54.2 µM (inactive) | 10.6 µM (inactive) | 8.73 µM (inactive) | 993 nM (active) | 11.9 µM (inactive) | > 100 µM (inactive) | > 100 µM (inactive) | 19.4 µM (inactive)
2 | O=C1C(Cl)=C(N2CCC[C@H]2CO)C(=O)c2c(O)ccc(O)c21 | > 10 µM (inactive) | 4.55 µM (inactive) | > 10 µM (inactive) | 4.34 µM (inactive) | 2.09 µM (inactive) | 1.95 µM (inactive) | 1.81 µM (inactive) | 2.64 µM (inactive) | 1.86 µM (inactive) | 1.7 µM (inactive) | > 10 µM (inactive) | 0.104 µM (active) | 2.56 µM (inactive) | 2.88 µM (inactive) | 4.24 µM (inactive) | 379 nM (active) | > 10 µM (inactive) | 1.55 µM (inactive) | 2.54 µM (inactive) | 2.04 µM (inactive)
3 | CCOC(=O)/C(C(=O)Nc1ccc(Cl)cc1)=C(/N)N1CCCC1 | > 100 µM (inactive) | > 100 µM (inactive) | > 100 µM (inactive) | > 100 µM (inactive) | > 100 µM (inactive) | > 100 µM (inactive) | > 100 µM (inactive) | > 100 µM (inactive) | > 100 µM (inactive) | > 100 µM (inactive) | > 100 µM (inactive) | > 100 µM (inactive) | > 100 µM (inactive) | > 100 µM (inactive) | > 100 µM (inactive) | 97900 nM (inactive) | > 100 µM (inactive) | > 100 µM (inactive) | > 100 µM (inactive) | 42 µM (inactive)
4 | COc1cc2cc(C(=O)N3CC(CCl)c4c3cc(N(C)C)c3ccccc43)[nH]c2c(OC)c1OC (stereo not given) | 0.103 µM (active) | 0.0101 µM (active) | < 0.01 µM (active) | 0.0117 µM (active) | < 0.01 µM (active) | < 0.01 µM (active) | < 0.01 µM (active) | 0.0378 µM (active) | 0.0169 µM (active) | 0.0321 µM (active) | 0.0132 µM (active) | < 0.01 µM (active) | 0.0127 µM (active) | < 0.01 µM (active) | < 0.01 µM (active) | 14.4 nM (active) | < 0.01 µM (active) | 0.0483 µM (active) | 0.0108 µM (active) | < 0.01 µM (active)
5 | Cc1ccc2c(O)cc(-c3cc(C)sc3C)nc2n1 | 8.87 µM (inactive) | 4.05 µM (inactive) | 6.07 µM (inactive) | 3.3 µM (inactive) | 5.08 µM (inactive) | 3.2 µM (inactive) | 2.18 µM (inactive) | 10.4 µM (inactive) | 0.455 µM (active) | 3.56 µM (inactive) | 2.38 µM (inactive) | 2.07 µM (inactive) | 3.5 µM (inactive) | 3.91 µM (inactive) | 2.55 µM (inactive) | 2370 nM (inactive) | 1.94 µM (inactive) | 5.53 µM (inactive) | 25.1 µM (inactive) | 4.88 µM (inactive)
6 | CCCCCc1cccc(=O)o1 | > 100 µM (inactive) | > 100 µM (inactive) | > 100 µM (inactive) | > 100 µM (inactive) | > 100 µM (inactive) | > 100 µM (inactive) | > 100 µM (inactive) | > 100 µM (inactive) | > 100 µM (inactive) | > 100 µM (inactive) | > 100 µM (inactive) | > 100 µM (inactive) | > 100 µM (inactive) | > 100 µM (inactive) | > 100 µM (inactive) | > 100000 nM (inactive) | > 100 µM (inactive) | > 100 µM (inactive) | > 100 µM (inactive) | > 100 µM (inactive)
